Experimental data as given in PMC4947679, “Quantitative In Vitro and In Vivo Evaluation of Intestinal and Blood-Brain Barrier Transport Kinetics of the Plant N-Alkylamide Pellitorine” (BioMed Research International, 2016).

Tests used:
[1] = Blood-to-brain transport, multiple time regression (MTR) analysis in mice
Protocol: Seven-to-ten-week-old female, Institute for Cancer Research, Caesarean Derived-1 (ICR-CD-1) mice (Harlan Laboratories, Venray, Netherlands) weighing 29–32 g were used for the BBB transport experiments. The experiments were performed according to the Ethical Committee principles of laboratory animal welfare as approved by Ghent University (Faculty of Veterinary Medicine, number EC2014/128).
An in vivo multiple time regression (MTR) analysis was performed in order to determine whether pellitorine could enter the brain. A dose solution of 1.8 mg/mL pure pellitorine dissolved in 6.9% EtOH, 2.5% dimethylacetamide, and 0.5% tween 80 (all w/w) diluted in lactated Ringer's solution containing 1% BSA was prepared. After anesthetizing the mice intraperitoneally with a 40% (w/V) urethane solution (3 g/kg), the jugular internalis vein and carotid artery were isolated and 20 μL of the pellitorine dose solution was injected into the jugular vein. After 1, 3, 5, 10, 12.5, and 15 min after injection (with start and end in duplicate), blood was collected from the carotid artery. Immediately thereafter, the mice were decapitated and the brains were isolated. […] The serum concentrations of pellitorine were plotted against the time (expressed in min). The curve was fitted using a first-order kinetic, two-compartment model: C(t) = C 1 × e ^−α×t + C 2 × e ^−β×t, in which C is the concentration of pellitorine in serum at time t, α and β are hybrid constants, dependent on the rate constants k e (elimination rate constant), k 1,2 (rate constant between central and peripheral tissue compartment), k 2,1 (rate constant between peripheral tissue and central compartment), C 1 is the concentration obtained after extrapolation of the distribution phase α to the y-axis, and C 2 is the concentration obtained after extrapolation of the elimination phase β to the y-axis. The ratio of the pellitorine brain and serum concentration (μL/g) was plotted versus the exposure time (θ), which is a derived time variable of the Gjedde-Patlak plot, to determine the BBB influx kinetics of pellitorine.
The exposure time is computed as θ = ∫0 ^T((C s(t) · dt)/C s(T)) and is defined as the integral of the concentration of pellitorine in serum from start (t = 0 min) to time T, divided by the concentration of pellitorine in serum at time T. The integral of the concentration of pellitorine in serum from zero to time T is the area under the curve until time T.
The brain uptake of pellitorine was fitted using a biphasic model, as elaborated by Wong et al.: (4) CbrainT/CsTK·θ+Vg·1−e^−θ·K1−K/Vg+V0≅K=0Vg·1−e^−θ·K1/Vg+V0 in which C brain(T) is the concentration of pellitorine in the brain at time T (ng/g), C s(T) the concentration of pellitorine in serum at time T (ng/μL), K the net clearance (μL/(g·min)), V g the tissue brain distribution volume (μL/g), K 1 the unidirectional clearance from pellitorine from blood to brain (i.e., the unidirectional brain transfer coefficient, also referred to as influx rate) (μL/(g·min)), and V 0 the vascular brain distribution volume (μL/g).

[2] = In vitro metabolic stability; type: in vitro ADME; details: pH 7.4; one hour, 37°C; mouse serum, brain homogenate and liver homogenate
Protocol: The in vitro metabolic stability of pellitorine was evaluated in mouse brain and liver homogenates and mouse serum according to previously described protocols. Using the Pierce Modified Lowry Protein Assay method (Thermo Scientific), the protein content of each tissue homogenate was determined to prepare a stock solution containing a 0.6 mg/mL protein concentration in Krebs-Henseleit buffer (pH 7.4). […] After 0, 5, 7.5, 15, 60, and 120 min, aliquots of 100 μL were taken and transferred into 0.5 mL tubes (LoBind Eppendorf) containing 100 μL of 1% (V/V) TFA in water. Next, the samples were heated at 95°C for 5 min and subsequently cooled for 30 min in ice. Thereafter, the samples were centrifuged (20 000 ×g for 30 min at 5°C) and 25 μL of the clear supernatant was injected and analysed using a HPLC-UV/MS method of 46 min which was previously described. The HPLC-MS analysis was done on a HPLC system which consisted of a Spectra System SN4000 interface, a Spectra System SCM1000 degasser, a Spectra System P1000XR pump, a Spectra System AS3000 autosampler, and a Finnigan LCQ Classic ion trap mass spectrometer in positive ion mode (all from Thermo, San José, CA, USA) equipped with Waters 2487 Dual Absorbance detector and Xcalibur 2.0 software (Thermo) for data acquisition. Control solutions were also prepared but without pellitorine. […]

[3] = parameters: method as in PMID 24055064; details: cited from earlier work
fatty acid uptake = system: fatty acid uptake; parameters: method as in PMID 25422952; details: in vitro; cited from earlier work
[4] = female, ICR-CD-1, mouse, serum, iv, 36 μg/mouse
[5] = mice, intravenous, two-compartment model

Kp ([1]; female, ICR-CD-1, mouse, brain (relative to serum), iv, 36 μg/mouse): 0.792
half-life [1, 4]: 4.48 min
k el [1, 4]: 0.0025 s⁻¹
unidirectional influx rate K 1 ([1]; mice, injection into jugular vein, MTR): 153 µL/g/min
tissue brain distribution volume (V g) ([1]; mice, intravenous, biphasic model): 792 µL/g
C 1 (serum, extrapolation of distribution phase) [1, 5]: 7.02 µg/mL
C 2 (serum, extrapolation of elimination phase) [1, 5]: 0.44 µg/mL
distribution rate constant α ([1]; mouse serum, intravenous, two-compartment model): 1.56 min⁻¹
recovery at 1 h, 0.025 mg/mL [2]: 91 to 105%
Compound: CCCCC/C=C/C=C/C(=O)NCC(C)C [pellitorine, deca-2E,4E-dienoic acid isobutylamide]
toxicity during the experiment ([1]; mouse, in vivo, iv): no toxicity was observed
log P [3]: 3.65
fatty acid uptake (fatty acid uptake): reduces fatty acid uptake
